Consider two compounds from USRE34284E, “Method for assaying proteolytic enzymes” (bioMerieux Vitek, Inc., priority 1992, dated 1993).

Assay [1] has as its system trypsin. In words: Kinetic constants for trypsin-catalyzed hydrolysis of BOC-ARG-MBTH, continuous assay (Example 18). It is filed as biochemical. Conditions: for kc (kinetic catalytic constant) / Km: tris buffer pH 7.8, 590 nm; for Km: read-out: Km (binding constant). As to the method:
Determination of the Kinetic Constants for the Trypsin Catalyzed Hydrolysis of N-(N-t-butoxycarbonyl)-L-Arginyl 3-methyl benzothiazolinone hydrazone (continuous assay)).
In a one cm. cuvette were mixed 3.0 mL of 0.02M tris buffer, pH 7.8, containing 0.02M 3-dimethylamino benzoic acid (DMAB) 0.1 mL of 0.065M potassium ferricyanide, and 0.1 mL of substrate (BOC-ARG-MBTH). The reaction was initiated by the addition of 1 0.1 mL of trypsin (2.33×10^-4 M in 0.1M pyrophosphate buffer, pH 8.3). Eight concentrations of substrate, from 9.98×10^-4 M to 7.8×10^-6 M, were assayed in triplicate. The increase in absorption at 590 nm was monitored continuously and the initial rates were determined. Under the conditions of the assay, a molar absorptivity of 57,000 was used to determine the concentration of the chromogen (MBTH-DMAB) produced by the hydrolysis of substrate. Table I contains the date used to determine the binding and kinetic constants (Km, kc).

Assay [2] has as its system trypsin. In words: Continuous assay for trypsin, hydrolysis of Z-GLY-PRO-ARG-MBTH (Example 16). It is filed as biochemical. The settings on record: 1 μg trypsin, 0.14M Tris pH 7.8, 0.0131M DMAB, 0.002M potassium ferricyanide, 3% dimethylformamide; substrate 1.74×10^-3, 5.8×10^-4 and 3.9×10^-4 M in triplicate; 590 nm, 5 minutes. As to the method: Saturation kinetics for N-(N-benzyloxycarbonyl)glycyl-L-prolyl-L-arginyl 3-methyl-2-benzothiazolinone hydrazone with trypsin).
A continuous assay for trypsin was performed, i.e., the oxidizing and coupling reagents for color development were included with the substrate in the reaction mixture so that color development may be monitored on a continuous basis with time. In this example the dye precursor is developed to a dye without destroying the enzymatic activity of the enzyme. The reaction was initiated by the addition of 0.1 mL of enzyme (10 μg/mL) to 0.9 mL of buffer solution containing substrate (Z-GLY-PRO-ARG-MBTH) and color developing reagents. The final concentrations in the cuvette were 1 μg trypsin +0.14M Tris buffer, pH 7.8 +0.0131M 3-dimethylamino benzoic acid (DMAB) +0.002M potassium ferricyanide +3% dimethylformamide +substrate. Substrate concentrations of 1.74×10^-3 M, 5.8×10^-4 M and 3.9×10^-4 M were assayed in triplicate. The increases in absorbance at 590 nm were monitored continuously for 5 minutes and the initial rates determined. Using the molar absorptivity of 57,000 for the chromogen produced (MBTH-DMAB), the average rate of hydrolysis was calculated to be 4.43±0.1×10^-6 mol min^-1.

Setting [3] is: Woolf-Augustinssen-Hofstee method.

Several values for one entry are separate records, joined by “and”; a condition that tells them apart may be missing. Equal entries are not always repeated. Where two headings read alike, the source gives them in different places.

In the case of `Cn1c(=NNC(=O)[C@H](CCCNC(=N)N)NC(=O)OC(C)(C)C)sc2ccccc21` [BOC-ARG-MBTH, N-(N-t-butoxycarbonyl)-L-Arginyl 3-methyl benzothiazolinone hydrazone], the I/V was 0.000565 min/M and 0.000528 min/M and 0.000625 min/M in assay [1] (I/S 100 M^-1); 0.000699 min/M and 0.000742 min/M in assay [1] (I/S 200 M^-1); 0.000766 min/M and 0.00088 min/M and 0.000819 min/M in assay [1] (I/S 401 M^-1); 0.00108 min/M and 0.001188 min/M and 0.001033 min/M in assay [1] (I/S 802 M^-1); 0.001697 min/M and 0.001607 min/M and 0.001827 min/M in assay [1] (I/S 1603 M^-1); 0.002969 min/M and 0.003393 min/M in assay [1] (I/S 2305 M^-1). For the same compound, the I/V was 0.005056 min/M and 0.00528 min/M in assay [1] (I/S 6413 M^-1); 0.009901 min/M and 0.009506 min/M in assay [1] (I/S 12826 M^-1). For the same compound, the V/S in assay [1] (I/S 100 M^-1) was 0.00177 min⁻¹ and 0.0019 min⁻¹ and 0.0016 min⁻¹; in assay [1] (I/S 200 M^-1), 0.00287 min⁻¹ and 0.0027 min⁻¹; in assay [1] (I/S 401 M^-1) it was 0.00523 min⁻¹ and 0.00456 min⁻¹ and 0.00489 min⁻¹; in assay [1] (I/S 802 M^-1), 0.00743 min⁻¹ and 0.00675 min⁻¹ and 0.00776 min⁻¹; in assay [1] (I/S 1603 M^-1) it was 0.00945 min⁻¹ and 0.00877 min⁻¹; in assay [1] (I/S 2305 M^-1), 0.01808 min⁻¹ and 0.0108 min⁻¹ and 0.00945 min⁻¹. The V/S was 0.01268 min⁻¹ and 0.01215 min⁻¹ in assay [1] (I/S 6413 M^-1); 0.01295 min⁻¹ and 0.01349 min⁻¹ in assay [1] (I/S 12826 M^-1). In addition, the “kc (kinetic catalytic constant)” value in assay [1] (Lineweaver-Burk plot) was 0.0436 s⁻¹; in assay [1] (setting [3]), 0.0428 s⁻¹. In addition, the Km in assay [1] (Lineweaver-Burk plot) was 1410 µM; in assay [1] (setting [3]), 1290 µM.
Regarding `Cn1c(=NNC(=O)[C@H](CCCNC(=N)N)NC(=O)[C@@H]2CCCN2C(=O)CNC(=O)OCc2ccccc2)sc2ccccc21` [Z-GLY-PRO-ARG-MBTH, N-(N-benzyloxycarbonyl)glycyl-L-prolyl-L-arginyl 3-methyl-2-benzothiazolinone hydrazone], the “average rate of hydrolysis” value in assay [2] is given as 4.43±0.1×10^-6 mol min^-1.
